In patent publication US20130012472A1, “COMPOSITION AND METHODS OF INHIBITING GASTROINTESTINAL PATHOGEN INFECTION” (Boston College, priority 2011, published 2013):

Tests used:
IL-8 [1] = test: ELISA of IL-8 secretion by ETEC-infected IECs; format: cell-based; conditions: for IL-8 secretion induced by ETEC invasion: ETEC-infected IECs with inhibitors, FIGS. 3D and 3E
Experimental: (§1) Intestinal epithelial cells (IECs) such as HCT8, T84, Caco2, H4, and FHs74 cells, were cultured in 24-well tissue culture plates (Corning life Sciences Inc, MA) at 5×10^4 cells/well in antibiotic free media for 48 hours. The IEC cells, with or without treatment of HMOS or TFiLNO, were incubated with a suspension of ETEC H10407 cells (10^5-10^9 cfu) for 1 h at 37° C. […] gentamicin was then added to the culture to kill any extracellular bacteria cells. Cell lysis was performed in 500 μl of 0.5% Triton X-100 (Sigma, Mo.) for 30 minutes at room temperature. The cell lysates were plated on difco agar plates (antibiotic free) at a proper dilution of 500. The total number of cell-associated bacteria was determined as the number of bacteria in IEC lysate immediately after infection. The number of invaded bacteria was determined as those detected in IEC cell lysate prepared from IECs treated with gentamycin for 1 hour after bacterial infection. The number of bacteria adhered to IEC cells was calculated as follows: (The total number of cell-associated bacteria)−(The number of invaded bacteria). All of the adhesion and invasion assays were performed in duplicate in at least three independent experiments.
(§2) Levels of proinflammatory factors (IL-8, IL-6, TNF-α, and MCP-1) in the culture supernatants of the IECs were measured using ELISA kits from R&D following manufacturer's protocols.

ETEC H10407 = test: Bacteria invasion assay (adherence and invasion of ETEC to IECs); format: cell-based, Escherichia coli
Experimental: as §1

ETEC [2] = test: Pre-incubation assay (ETEC pre-incubated with TFiLNO, then invasion of T84 cells); format: cell-based, Escherichia coli; conditions: ETEC pre-incubated 2 h with TFiLNO 30 pg/mL, then T84 cells 1 hour; FIG. 6B
Experimental: ETEC cells in mid-logarithmic growth phase were re-suspended in PBS (pH 7.2) at a concentration of 2×10^8 cells/ml. The suspension was mixed with an equal volume of PBS in the presence or absence of TFiLNO (30 pg/mL), and incubated in U-bottom 96-well plates at room temperature for 2 h with brief mixing every 15 min. At the end of the incubation, the ETEC cells were co-incubated with T84 cells for 1 hour at 37° C. After extracellular bacteria were killed by gentamycin, invaded ETEC were measured as described above.

ETEC [3] = test: Wash-out experiments (IECs pre-incubated with TFiLNO, washed, then ETEC invasion); format: cell-based, Escherichia coli; conditions: IECs incubated 48 hours with 30 pg/mL TFiLNO, washed 6 times with PBS; FIG. 6C
Experimental: IECs were grown in 24-well tissue culture plates (Corning life Sciences Inc, MA) at 5×10^4 cells/well in an antibiotic free medium for 48 hours. The culture medium was then replaced with a fresh medium containing 30 pg/mL TFiLNO. The IECs were further incubated at 37° C. for 48 hours. Supernatants were discarded and cells were washed 6 times with PBS. The cells were then incubated in a fresh medium free of TFiLNO and contains ETEC (10^8). After 1 hour incubation, extracellular bacteria were killed by gentamycin. Invaded ETEC were measured as described previously.

CD14 = CD14 expression on IECs (RT-PCR, FACS); format: cell-based, human; conditions: TFiLNO-treated IECs; FIGS. 7B and 7C
Experimental: IEC cells (e.g., T84 cells) were treated with HMOS (5 mg/mL) prepared as described above for 48 hours. Cells not treated by HMOS were used as a negative control. Total RNAs were purified from the IEC cells and RT-PCR was performed following routine methods to determine the expression levels of genes of interest, including those shown in FIG. 7B. GADPH was used as an internal control. The relative gene expression levels were determined by Delta CT Method. T84 cells treated with or without HMOS were incubated with PE-conjugated mouse anti-human CD14 Mabs. PE-conjugated isotype-matched (IgG1) antibodies were used as controls. Data respecting 20,000 live cells from each sample were collected and subjected to FACS analysis following routine procedures.

IL-8 [4] = test: LPS-stimulated IL-8 secretion by T84 cells in the absence of ETEC (ELISA); format: cell-based; conditions: TFiLNO 30 pg/ml, 1 h at 37° C., FIG. 7A
Experimental: as §2
To examine the effect of TFiLNO on IL-8 production, this oligosaccharide (30 pg/ml) was incubated with T84 cells in the absence of ETEC for 1 h at 37° C. IL-8 secretion to the culture medium was determined by ELISA. […] See also FIGS. 7B and 7C.

ETEC [5] = test: Bacteria killing assay; format: cell-based, Escherichia coli; conditions: TFiLNO 30 pg/ml; FIG. 6A

C=C1[C@@H](C)[C@H]2[C@H](Cc3ccccc3)NC(=O)[C@]23[C@H](OC(C)=O)/C=C/[C@@](C)(O)C(=O)[C@@H](C)C/C=C/[C@H]3[C@@H]1O [cytochalasin D, reference compound]
IL-8 secretion induced by ETEC invasion (IL-8 [1]): inhibited | ETEC invasion of IEC cells (ETEC H10407; cytochalasin D, FIG. 3D): Inhibition of invasion

Trifucosyl(1,2-1,2-1,3)-lacto-N-octoase [TFiLNO]
invasion of ETEC after pre-incubation of ETEC with TFiLNO (ETEC [2]): could not be further inhibited | inhibitory activity against ETEC invasion after washing off preincubated TFiLNO (ETEC [3]): did not affect | secretion of IL-8 by the treated IEC cells (IL-8 [1]; TFiLNO 30 pg/ml, ETEC-infected IEC cells, over time, FIG. 5C): significantly reduced | CD14 expression on IECs (CD14): suppression | adherence of ETEC to IEC cells (ETEC H10407; TFiLNO 30 pg/ml, FIG. 5A): inhibit | invasion of ETEC to IEC cells (ETEC H10407; TFiLNO 30 pg/ml, FIG. 5B): inhibit | IL-8 secretion stimulated by LPS (IL-8 [4]): directly inhibited | killing of ETEC (ETEC [5]): did not kill

polymycin-B
IL-8 secretion induced by ETEC invasion (IL-8 [1]): reduced
